According to patent US3940438A, “Crystalline racemic 9α,11α,15(S)-trihydroxy-5-cis,13-trans-prostadienoic acid” (priority 1973, dated 1976):

Key:
[1] = Storage at 25 °C with constant exposure to the air; type: physicochemical
Protocol: The figures also show the separation of PGF2α and its 15-epimer. […] In FIGS. 4, 4a and 4b, all injections represent 100 μg of PGF2α initial samples.

physchem = assay: physchem
Protocol: A weighed sample was diluted with dioxane to produce a solution which was 10μg PGF2α /μl of solution. This solution was used to calibrate the response of the differential refractometer of a Waters Assoc. Model 100 high pressure liquid chromatograph (h.p.l.c.). The calibration appears in FIG. 1. FIG. 1, the PGF2α peak height conditions are as follows: column 4 feet ×0.125 inches o.d., column of Corasil -II. Solvent 0.2% HOAc/EtOAc wherein the former is acetic acid and the latter is ethyl acetate. Flow 0.9ml/min. Reaction times: dioxane front appears at […]. PGF2α at 14 min. from injection corresponding to column void volume after void volume displacement. The numbers on the x-axis are μg injected and the numbers along the y-axis indicate detector response in inches at peak heights.
Weighed samples, 0.5-1.0 mg. ± 0.03 mg, of PGF2α and crystalline racemic PGF2α were placed in 1 dram vials. These vials were randomly divided between storage at -20° C under argon and storage at 41 ± 2°, open to the air, in a sand bath. At stipulated times samples were removed from both types of storage, diluted to 10μg PGF2α /μl, and assayed by h.p.l.c. […] Individual assays of 41° C stored samples are collected in FIG. 2. […] The open symbols are for racemic PGF2α and the closed symbols are for nat. PGF2α. The different symbols are used to indicate different samples. Replicate analysis appear as multiple used of the same symbols at any one time. […] The numbers along the x-axis are days at 41 ± 2° C and along the y-axis are percents.
Since, prostaglandins, including the dienoics, are known to be unstable, as they undergo autoxidation on exposure to air. Methods of Biochemical Analysis, Vol. 17, pages 325 to 371, 1969, published by Interscience Publishers, New York.
FIGS. 3, 3a and 3b show the traces from rapid analysis, (at 1 ml/min.). […] In FIGS. 4, 4a and 4b, all injections represent 100 μg of PGF2α initial samples.

[2] = Storage at -20 °C under argon, h.p.l.c. assay; type: physicochemical; conditions: samples taken at stipulated times
Protocol: Natural 9α,11α,15(S)-trihydroxy-5-cis,13-trans-prostadienoic acid, natural PGF2α, prepared from total synthesis was a soft, waxy semi-crystalline compound melting in the range of 25°-32°. […] The calibration appears in FIG. 1. FIG. 1, the PGF2α peak height conditions are as follows: column 4 feet ×0.125 inches o.d., column of Corasil -II. […] Flow 0.9ml/min. Reaction times: dioxane front appears at 30 min.
Weighed samples, 0.5-1.0 mg. ± 0.03 mg, of PGF2α and crystalline racemic PGF2α were placed in 1 dram vials. These vials were randomly divided between storage at -20° C under argon and storage at 41 ± 2°, open to the air, in a sand bath. […] In FIG. 2, the loss of PGF2α on storage open to air at 41 ± 2° C is set forth. […] PGF2α. The different symbols are used to indicate different samples. […] The numbers along the x-axis are days at 41 ± 2° C and along the y-axis are percents. The crystalline racemate assayed 103 ± 3% based on the natural compound.

CCCCC[C@H](O)/C=C/[C@@H]1[C@@H](C/C=C\CCCC(=O)O)[C@@H](O)C[C@H]1O (relative stereo) [Polymorph I, racemic 9α,11α,15(S)-trihydroxy-5-cis,13-trans-prostadienoic acid]
extent of oxidation ([1]; in 17 days, stated for comparison ("would be")): over half oxidized in 17 days

CCCCC[C@H](O)/C=C/[C@@H]1[C@@H](C/C=C\CCCC(=O)O)[C@@H](O)C[C@H]1O [oily PGF2α, reference compound]
course of degradation by oxidation (physchem): degrades by oxidation rapidly at first suggestive of a surface reaction, and then more slowly | measured half life of degradation by oxidation (physchem): 17 days

CCCCC[C@H](O)/C=C/[C@@H]1[C@@H](C/C=C\CCCC(=O)O)[C@@H](O)C[C@H]1O (relative stereo) [Polymorph II, crystalline racemic 9α,11α,15(S)-trihydroxy-5-cis,13-trans-prostadienoic acid]
crystalline loss on storage ([1]; 25 °C, constant exposure to the air, after more than one year): without any evidence of crystalline loss after more than one year | assay by h.p.l.c. against fresh standards after storage [2]: within experimental error of fresh standards (±6%) | long term storage stability (overall finding) (physchem): superior long term storage stability | change after storage (physchem; after 14 days, open to air at 41 ± 2 °C): unchanged after 14 days | assay of crystalline racemate based on the natural compound (physchem; h.p.l.c., differential refractometer, based on natural PGF2α): 103 ± 3% | degraded (physchem; storage open to air): 3%

CCCCC[C@H](O)/C=C/[C@@H]1[C@@H](C/C=C\CCCC(=O)O)[C@@H](O)C[C@H]1O [PGF2α, Natural 9α,11α,15(S)-trihydroxy-5-cis,13-trans-prostadienoic acid, reference compound]
assay by h.p.l.c. against fresh standards after storage [2]: within experimental error of fresh standards (±6%) | identity of degradation products versus 15-epi-PGF2α (physchem): Neither of the degradation products seen in the PGF2α sample stored 9 days at 41 °C corresponds to 15-epi-PGF2α
